Holding throughout (assay type): cell-based
The target of one assay is T1, PPARδ (Homo sapiens, UniProt Q03181).
T1 construct: expressed in transfected cells; host or cells: CV-1 cells
T1 sequence (Q03181 211-439 limits assumed): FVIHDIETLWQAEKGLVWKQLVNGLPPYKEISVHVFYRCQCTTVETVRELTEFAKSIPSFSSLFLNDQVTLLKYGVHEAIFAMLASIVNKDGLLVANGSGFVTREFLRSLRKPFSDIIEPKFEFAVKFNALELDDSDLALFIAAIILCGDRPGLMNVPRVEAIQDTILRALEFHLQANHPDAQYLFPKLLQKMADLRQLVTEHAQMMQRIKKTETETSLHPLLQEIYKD
Put plainly: PPAR-delta EC50, functional cell (transactivation) assay. An excerpt:
(§1) The following transfection assay methods are provided by way of example only. Compounds may be screened for functional potency in transient transfection assays in CV-1 cells for their ability to activate the PPAR subtypes (transactivation assay). A previously established chimeric receptor system was utilized to allow comparison of the relative transcriptional activity of the receptor subtypes on the same target gene and to prevent endogenous receptor activation from complicating the interpretation of results. See, for example, Lehmann, J. M.; Moore, L. B.; Smith-Oliver, T. A; Wilkinson, W. O.; Willson, T. M.; Kliewer, S. A., An antidiabetic thiazolidinedione is a high affinity ligand for peroxisome proliferator-activated receptor γ(PPARγ), J. Biol. Chem., 1995, 270, 12953-6. The ligand binding domains for murine and human PPAR-alpha, PPAR-gamma, and PPAR-delta are each fused to the yeast transcription factor GAL4 DNA binding domain. CV-1 cells were transiently transfected with expression vectors for the respective PPAR chimera along with a reporter construct containing five copies of the GAL4 DNA binding site driving expression of secreted placental alkaline phosphatase (SPAP) and p-galactosidase. After 16 h, the medium is exchanged to DME medium supplemented with 10% delipidated fetal calf serum and the test compound at the appropriate concentration. After an additional 24 h, cell extracts are prepared and assayed for alkaline phosphatase and pgalactosidase activity. Alkaline phosphatase activity was corrected for transfection efficiency using the p-galactosidase activity as an internal standard (see, for example, Kliewer, S. A., et. al. Cell 1995, 83, 813-819. Rosiglitazone is used as a positive control in the hPPARγ assay. The positive control in the hPPAR-alpha and hPPAR-delta assays was 2-[4-(2-(3-(4-fluorophenyl)-1heptylureido)ethyl)-phenoxy]-2-methylpropionic acid, which can be prepared as described in Brown, Peter J., et. al. Synthesis (7), 778-782 (1997), or patent publication WO 9736579.
(§2) Compounds of Examples 1-41 were assayed to measure their biological activity with respect to their EC50 values and efficacy for modulating PPAR-alpha, PPAR-gamma, and PPAR-delta as set forth in Table 2.

In another assay the target is T2, PPARα (Homo sapiens, UniProt Q07869).
T2 construct: expressed in transfected cells; host or cells: CV-1 cells
T2 sequence (Q07869 239-466 limits assumed): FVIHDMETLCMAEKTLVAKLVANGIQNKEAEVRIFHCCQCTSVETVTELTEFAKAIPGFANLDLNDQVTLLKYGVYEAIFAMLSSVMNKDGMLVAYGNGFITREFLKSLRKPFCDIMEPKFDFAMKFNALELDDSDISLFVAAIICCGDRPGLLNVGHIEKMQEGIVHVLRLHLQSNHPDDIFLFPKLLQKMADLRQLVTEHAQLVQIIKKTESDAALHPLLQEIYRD
Kind of assay: PPAR-alpha EC50, functional cell (transactivation) assay.
Source text: as §1, §2

Another assay deals with T3, PPARγ (Homo sapiens, UniProt P37231).
T3 construct: expressed in transfected cells; host or cells: CV-1 cells
T3 sequence (P37231 238-503 limits assumed): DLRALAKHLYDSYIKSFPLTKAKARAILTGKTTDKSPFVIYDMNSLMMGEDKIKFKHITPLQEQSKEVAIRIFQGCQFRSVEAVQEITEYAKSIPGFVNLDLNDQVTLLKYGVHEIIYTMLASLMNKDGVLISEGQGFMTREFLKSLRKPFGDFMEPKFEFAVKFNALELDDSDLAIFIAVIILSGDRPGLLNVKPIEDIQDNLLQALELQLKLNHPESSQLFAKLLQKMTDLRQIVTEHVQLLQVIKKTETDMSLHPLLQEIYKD
Put plainly: PPAR-gamma EC50, functional cell (transactivation) assay.
Source text: as §1, §2

Each structure is given as a SMILES string.

The term EC50 denotes the concentration giving half of the maximal effect.

In the case of `Cc1cc(S(=O)(=O)N2CCN(c3cc(Cl)ccc3C)C(C)C2)ccc1OC(C)(C)C(=O)O` (stereo not drawn), the EC50 was 1 to 100 µM at PPARδ, over 100 µM on PPARα and over 100 µM at PPARγ.
For the molecule `CC(C)(Oc1ccc(S(=O)(=O)N2CCN(c3ccc(Cl)c(Cl)c3)CC2)cc1)C(=O)O`, the EC50 at PPARδ, on PPARα and at PPARγ was 1 to 100 µM in each case.
Consider `Cc1cc(S(=O)(=O)N2CCN(c3cccc(Br)c3)CC2)ccc1OC(C)(C)C(=O)O`, for which the EC50 on PPARδ is under 1 µM; on PPARα, over 100 µM; at PPARγ it was 1 to 100 µM.
On to `CC(C)(Oc1ccc(S(=O)(=O)N2CCN(c3ccc(F)cc3)CC2)cc1)C(=O)O`, for which the EC50 on PPARδ was 1 to 100 µM; at PPARα it was over 100 µM; on PPARγ, over 100 µM.
`CC(C)(Oc1ccc(S(=O)(=O)N2CCN(c3ccccc3)CC2)cc1)C(=O)O`: the EC50 on PPARδ was 1 to 100 µM; at PPARα, over 100 µM; on PPARγ, over 100 µM.
For the molecule `Cc1cc(S(=O)(=O)N2CCN(Cc3ccc(F)cc3)CC2)ccc1OC(C)(C)C(=O)O`, the figures for the EC50 on PPARδ, at PPARα and on PPARγ were 1 to 100 µM, over 100 µM and 1 to 100 µM, respectively.
On to `CC(C)(Oc1ccc(S(=O)(=O)N2CCN(c3cccc(C(F)(F)F)c3)CC2)cc1)C(=O)O`, for which the EC50 is 1 to 100 µM at PPARδ, over 100 µM at PPARα and 1 to 100 µM on PPARγ.
For `Cc1cc(S(=O)(=O)N2CCN(c3ccc(F)cc3)CC2)ccc1OC(C)(C)C(=O)O`, the EC50 at PPARδ is under 1 µM; at PPARα, over 100 µM; at PPARγ it was 1 to 100 µM.
The matching figures for `COc1ccc(N2CCN(S(=O)(=O)c3ccc(OC(C)(C)C(=O)O)c(C)c3)CC2)cc1OC`: 1 to 100 µM, 1 to 100 µM and 1 to 100 µM.
In the same order, the values of `Cc1cccc(N2CCN(S(=O)(=O)c3ccc(OC(C)(C)C(=O)O)c(C)c3)CC2C)c1` (stereo not drawn) are under 1 µM, over 100 µM and 1 to 100 µM.
The matching figures for `Cc1cc(S(=O)(=O)N2CCN(CCc3ccccc3)CC2)ccc1OC(C)(C)C(=O)O`: 1 to 100 µM, over 100 µM and over 100 µM.
Take `Cc1cc(S(=O)(=O)N2CCN(c3ccc(C(C)(C)C)cc3)CC2)ccc1OC(C)(C)C(=O)O`: the EC50 is 1 to 100 µM on PPARδ, over 100 µM at PPARα and 1 to 100 µM on PPARγ.
Take `Cc1cc(S(=O)(=O)N2CCN(C(c3ccccc3)c3ccccc3)CC2)ccc1OC(C)(C)C(=O)O`: the results for the EC50 on PPARδ, on PPARα and at PPARγ were 1 to 100 µM, over 100 µM and 1 to 100 µM, respectively.
In the case of `Cc1cc(S(=O)(=O)N2CCN(c3ccc(Cl)c(Cl)c3)CC2)ccc1OC(C)(C)C(=O)O`, the EC50 was under 1 µM at PPARδ, 1 to 100 µM at PPARα and 1 to 100 µM on PPARγ.
Consider `COc1ccccc1N1CCN(S(=O)(=O)c2ccc(OC(C)(C)C(=O)O)c(C)c2)CC1`, for which the EC50 on PPARδ was 1 to 100 µM; at PPARα, over 100 µM; at PPARγ, 1 to 100 µM.
Consider `Cc1cc(S(=O)(=O)N2CCN(C(c3ccc(F)cc3)c3ccc(F)cc3)CC2)ccc1OC(C)(C)C(=O)O`, for which the EC50 at PPARδ, at PPARα and on PPARγ was 1 to 100 µM each time.
Turning to `COc1ccc(N2CCN(S(=O)(=O)c3ccc(OC(C)(C)C(=O)O)c(C)c3)CC2)cc1`, the EC50 on PPARδ is 1 to 100 µM; at PPARα, over 100 µM; at PPARγ, 1 to 100 µM.
Take `Cc1ccc(C)c(N2CCN(S(=O)(=O)c3ccc(OC(C)(C)C(=O)O)c(C)c3)CC2)c1`: the EC50 is 1 to 100 µM on PPARδ, over 100 µM at PPARα and 1 to 100 µM on PPARγ.
For the molecule `CCc1cnc(N2CCN(S(=O)(=O)c3ccc(OC(C)(C)C(=O)O)cc3)CC2)nc1`, the EC50 on PPARδ, on PPARα and at PPARγ was 1 to 100 µM in each case.
Take `Cc1cc(S(=O)(=O)N2CCN(c3ccccc3Cl)CC2)ccc1OC(C)(C)C(=O)O`: the EC50 on PPARδ was 1 to 100 µM; on PPARα it was over 100 µM; at PPARγ, 1 to 100 µM.
In the case of `CC(C)(Oc1ccc(S(=O)(=O)N2CCN(c3ccccc3F)CC2)cc1)C(=O)O`, the values for the EC50 at PPARδ, on PPARα and at PPARγ were 1 to 100 µM, over 100 µM and over 100 µM, respectively.
`Cc1cc(S(=O)(=O)N2CCN(C3CCCCC3)CC2)ccc1OC(C)(C)C(=O)O`: the EC50 was 1 to 100 µM at PPARδ, over 100 µM at PPARα and over 100 µM on PPARγ.
Regarding `Cc1ccc(N2CCN(S(=O)(=O)c3ccc(OC(C)(C)C(=O)O)cc3)CC2)c(C)c1`, the values for the EC50 on PPARδ, at PPARα and on PPARγ were 1 to 100 µM, 1 to 100 µM and over 100 µM, respectively.
Turning to `Cc1cc(S(=O)(=O)N2CCN(C(c3ccccc3)c3ccc(Cl)cc3)CC2)ccc1OC(C)(C)C(=O)O` (stereo not drawn) [drawing 127], the EC50 on PPARδ, at PPARα and on PPARγ was 1 to 100 µM each time.
As for `Cc1cc(S(=O)(=O)N2CCN(c3ccc(C#N)cc3)CC2)ccc1OC(C)(C)C(=O)O`, the EC50 on PPARδ was 1 to 100 µM; at PPARα, over 100 µM; at PPARγ it was over 100 µM.
In the case of `Cc1cccc(N2CCN(S(=O)(=O)c3ccc(OC(C)(C)C(=O)O)cc3)CC2C)c1` (stereo not drawn), the figures for the EC50 at PPARδ, on PPARα and on PPARγ were 1 to 100 µM, over 100 µM and over 100 µM, respectively.
For `Cc1cc(S(=O)(=O)N2CCN(c3ccc(Cl)cc3)CC2)ccc1OC(C)(C)C(=O)O`, the values for the EC50 on PPARδ, at PPARα and on PPARγ were under 1 µM, over 100 µM and 1 to 100 µM, respectively.
Turning to `Cc1cc(S(=O)(=O)N2CCN(c3ccc(C(F)(F)F)cc3[N+](=O)[O-])CC2)ccc1OC(C)(C)C(=O)O`, the EC50 on PPARδ is 1 to 100 µM; on PPARα, over 100 µM; on PPARγ, 1 to 100 µM.
With `CCOc1ccccc1N1CCN(S(=O)(=O)c2ccc(OC(C)(C)C(=O)O)c(C)c2)CC1`, the EC50 at PPARδ, on PPARα and at PPARγ was 1 to 100 µM throughout.
Consider `Cc1cc(S(=O)(=O)N2CCN(C(c3ccccc3)c3ccc(Cl)cc3)CC2)ccc1OC(C)(C)C(=O)O` (stereo not drawn) [drawing 116], for which the concentration giving a half-maximal response (EC50) on PPARδ, on PPARα and on PPARγ was 1 to 100 µM in each case.
Turning to `Cc1cc(S(=O)(=O)N2CCN(c3ccccc3)CC2)ccc1OC(C)(C)C(=O)O`, the EC50 at PPARδ is 1 to 100 µM; on PPARα it was over 100 µM; at PPARγ, 1 to 100 µM.
As to `Cc1cc(S(=O)(=O)N2CCN(CC3CCCCC3)CC2)ccc1OC(C)(C)C(=O)O`, the EC50 is 1 to 100 µM at PPARδ, over 100 µM at PPARα and 1 to 100 µM on PPARγ.
As for `Cc1cc(S(=O)(=O)N2CCN(C(=O)c3ccco3)CC2)ccc1OC(C)(C)C(=O)O`, the EC50 on PPARδ was 1 to 100 µM; on PPARα it was over 100 µM; on PPARγ, over 100 µM.
`Cc1ccc(N2CCN(S(=O)(=O)c3ccc(OC(C)(C)C(=O)O)c(C)c3)CC2C)cc1C` (stereo not drawn): the half-maximal effective concentration (EC50) at PPARδ is 1 to 100 µM; on PPARα, over 100 µM; at PPARγ it was over 100 µM.
As for `Cc1cc(S(=O)(=O)N2CCN(c3ccccc3C#N)CC2)ccc1OC(C)(C)C(=O)O`, the EC50 on PPARδ was 1 to 100 µM; at PPARα, over 100 µM; on PPARγ, 1 to 100 µM.
Take `Cc1cc(S(=O)(=O)N2CCN(C/C=C/c3ccccc3)CC2)ccc1OC(C)(C)C(=O)O`: the EC50 at PPARδ is 1 to 100 µM; on PPARα, over 100 µM; at PPARγ, 1 to 100 µM.
On to `Cc1ccc(N2CCN(S(=O)(=O)c3ccc(OC(C)(C)C(=O)O)c(C)c3)CC2)c(C)c1`, for which the EC50 at PPARδ was 1 to 100 µM; on PPARα, over 100 µM; at PPARγ, 1 to 100 µM.

(Values after patent US20060258683A1, “Para-sulfonyl substituted phenyl compounds as modulators of ppars” (priority 2003, published 2006).)
